# Source: PMC10975828, “Screening for Active Compounds of Acorus calamus against SARS-CoV-2 Viral Protease and Mechanism Prediction” (Pharmaceuticals, 2024)
# Like-named read-outs stand apart in the source and are kept apart here.
# How the values were obtained:
# SARS-CoV-2 Mpro = SARS-CoV-2 Mpro (Severe acute respiratory syndrome coronavirus 2, UniProt P0DTD1); assay: SARS-CoV-2 Mpro inhibition assay (fluorescence, 96-well); format: biochemical; conditions: for percent inhibition at 5 µM: read-out: Inhibition at 5 μM (%); for IC50: Mpro 1 µM, inhibitor 0–20 µM, substrate 20 µM; for enzyme activity: at a concentration of 5 μM
# SARS-CoV-2 PLpro = SARS-CoV-2 PLpro (Severe acute respiratory syndrome coronavirus 2, UniProt P0DTD1); assay: SARS-CoV-2 PLpro inhibition assay (fluorescence, 96-well); format: biochemical; conditions: for enzyme activity: 5 μM screening; for percent inhibition of PLpro at 5 µM: read-out: Inhibition at 5 μM (%)
# PC12 cell = tested on: PC12 cell; parameters: method as in PMID 28695650; conditions: previous studies; cited from earlier work
# [1] = Mpro, inhibitor 5 μM, substrate 1 μM, triplicate, 25 °C
# [2] = PLpro 1 µM, inhibitor 0–20 µM, substrate 20 µM, read-out: IC50
# [3] = PLpro, inhibitor 5 μM, substrate 1 μM, triplicate, 25 °C
Compound,percent inhibition at 5 µM (SARS-CoV-2 Mpro; [1]) [%],percent inhibition of PLpro at 5 µM (SARS-CoV-2 PLpro; [3]) [%],percent inhibition at 5 µM (SARS-CoV-2 Mpro) [%],percent inhibition of PLpro at 5 µM (SARS-CoV-2 PLpro) [%],other results
"COc1cc2ccnc3c2c(c1O)-c1c-3cccc(OC)c1=O [Compound 23, neo-tatarine]",81.5 ± 3.65,6.71 ± 3.23,–,–,IC50 (SARS-CoV-2 PLpro; [2]): 743 ± 187 nM; enzyme activity (SARS-CoV-2 PLpro; PLpro): below 10%; inhibitory effect on Aβ25-35-induced PC12 cell death (PC12 cell): significant inhibitory effect
"CC(=O)CC[C@@]12CC(=O)O[C@]1(C(C)C)C(=O)C[C@@H]2C [Compound 18, neo-acorane A]",31 ± 1.26,31.7 ± 8.07,–,–,IC50 (SARS-CoV-2 Mpro): 630 ± 364 nM; enzyme activity (SARS-CoV-2 Mpro; Mpro): less than 50%; IC50 (SARS-CoV-2 PLpro; [2]): 1890 ± 375 nM
"CC(C)C1=CC[C@@]2(C)[C@H](O)CC[C@](C)(O)[C@@H]2C1 [Compound 16, oplodiol]",–,–,78.2 ± 12.9,33.6 ± 2.46,–
"C=C1CC[C@@H]2[C@@](O)(C1)[C@H](C(C)C)CC[C@@]2(C)O [Compound 6, isocalamendiol]",80.31 ± 0.79,6.89 ± 1.65,–,–,IC50 (SARS-CoV-2 PLpro; [2]): 1670 ± 496 nM; enzyme activity (SARS-CoV-2 PLpro; PLpro): below 10%
"CC1=CC[C@H]2[C@](O)(C1)[C@@H](C(C)C)CC[C@@]2(C)O [Compound 10, 1β,7β(H)-3-cadinadiene-6α,10α-diol]",–,–,85.6 ± 0.88,26.6 ± 3.38,–
"CC(C)C1CCC(C)(O)C2CCC(C)(O)C2C1=O [Compound 1, 1R,5R,7S-guaiane-4R,10R-diol-6-one]",83.61 ± 0.01,6.41 ± 0.43,–,–,enzyme activity (SARS-CoV-2 PLpro; PLpro): below 10%
"CC(C)C1CCC(C)(O)C2CCC(C)(O)C2C1=O [1R,5R,7S-guaiane-4R,10R-diol-6-one]",–,–,–,–,IC50 (SARS-CoV-2 PLpro; [2]): 386 ± 118 nM
"CC(C)C(=O)[C@@]1([C@H](C)CC(=O)O)CC[C@@H](C)C(=O)C1 [Compound 19, acoric acid]",75.55 ± 0.24,7.9 ± 1.94,–,–,IC50 (SARS-CoV-2 PLpro; [2]): 1450 ± 429 nM; enzyme activity (SARS-CoV-2 PLpro; PLpro): below 10%
"CC1=C[C@H]2[C@@H](C(C)C)CC[C@@](C)(O)[C@]2(O)[C@@H](O)C1 [Compound 14, calamentriol D]",–,–,81.9 ± 1.31,25.4 ± 1.43,–
"C=C1CC[C@@H]2[C@](C)(O)[C@H](O)C[C@H](C(C)C)[C@@]2(O)C1 [Compound 9, calamentriol A]",–,–,82.9 ± 7.31,22.3 ± 4.83,–
"C=C1CC[C@@H]2[C@@](O)(C1)[C@H](C(C)C)CC[C@]2(C)O [Compound 7, calamendiol]",78.58 ± 0.67,20.1 ± 2.96,–,–,–
"CC(C)[C@H]1CC[C@](C)(O)[C@H]2CC[C@@](O)(CO)C[C@]12O [Compound 12, calamentriol C]",–,–,70.9 ± 1.17,25.8 ± 2.25,–
"CC1CC(=O)C(O)(C(C)C)C12CCC(C)(O)C(=O)C2 (stereo not shown) [Compound 20, calamusin D]",–,–,79.7 ± 8.49,22.2 ± 3.58,–
"CC1(O)CCC2C(C3C1CCC3(C)O)C2(C)C (single isomer, unassigned; (-)) [Compound 5, (-)-alloaromadendrane-3β,9β-diol]",–,–,78.33 ± 0.25,14.4 ± 0.88,–
"COc1cc(OC)c(OC)cc1C=O [Compound 24, 2,4,5-trimethoxybenzaldehyde]",–,–,68.9 ± 0.71,9.54 ± 0.61,IC50 (SARS-CoV-2 PLpro): 3920 ± 1290 nM; enzyme activity (SARS-CoV-2 PLpro; PLpro): below 10%
"CC(C)C1CCC2(C)C(O)CCC(C)(O)C2C1O (stereo not shown) [Compound 17, ananosmin]",–,–,74.6 ± 5.21,29.8 ± 1.54,–
"CC(C)[C@@H]1CCC(=O)C2=C1[C@H](O)[C@](C)(O)CC2 [Compound 15, oxyphyllenodiols A]",–,–,79.3 ± 10.4,35.3 ± 2.35,–
"CC(C)C1CCC(C)(O)C2=C1C(=O)C(C)(O)CC2O (stereo not shown) [Compound 13, menecubebane B]",41.1 ± 8.77,24.9 ± 4.91,–,–,IC50 (SARS-CoV-2 Mpro): 1720 ± 394 nM; enzyme activity (SARS-CoV-2 Mpro; Mpro): less than 50%; IC50 (SARS-CoV-2 PLpro; [2]): 2530 ± 885 nM
"CC(C)C1CCC(C)(O)C2CCC(C)(O)C2C1O (stereo not shown) [Compound 4, teuclatriol]",–,–,87.19 ± 0.31,11.8 ± 1.99,–
"CC(=O)C1CCC2C1C(C(C)C)CCC2(C)O (stereo not shown) [Compound 21, oplopanone A]",–,–,83.3 ± 4.06,33.9 ± 5.49,–
"CC(C)[C@@H]1CC[C@](C)(O)[C@@H]2CC[C@](C)(O)C[C@]21O [Compound 11, calamentriol B]",–,–,80.5 ± 4.82,38.4 ± 7.04,–
calamusin H [Compound 8],–,14.2 ± 0.93,–,–,percent inhibition (SARS-CoV-2 Mpro; [1]): 81.7 ± 6.15%
"C=C1CCC(C(C)C)C(O)C2C1CCC2(C)O (stereo not drawn) [Compound 3, 4β,6β-dihydroxy-1α,5β(H)-guai-10(14)-ene]",–,–,74.7 ± 0.05,11.3 ± 0.55,–
"CC1=CCC(C(C)C)C(O)C2C1CCC2(C)O (stereo not drawn) [Compound 2, 4β,6β-dihydroxy-1α,5β(H)-guai-9-ene]",–,–,85.9 ± 0.61,14 ± 1.95,–
"CC(C)(O)C[C@H]1CC[C@@]2(C)[C@H](O)CC[C@](C)(O)[C@H]12 [Compound 22, bullatantriol]",82.8 ± 1.58,10.6 ± 2.59,–,–,IC50 (SARS-CoV-2 PLpro; [2]): 1260 ± 321 nM; enzyme activity (SARS-CoV-2 PLpro; PLpro): below 10%
